Results on 20 molecules are retold here after article PMC6112376, “Comprehensive Analyses and Prioritization of Tox21 10K Chemicals Affecting Mitochondrial Function by in-Depth Mechanistic Studies” (Environmental Health Perspectives, 2018).

Molecules are shown by their SMILES. Read-outs that look alike come from different tables or passages of the source.

In data set [1] the test system is rat primary hepatocytes. Kind of data set: MMP assay in rat primary hepatocytes. To be noted: for IC50: Rattus norvegicus, Hepatocyte, read-out: MMP assays IC50 (µM) Rat Hepatocytes; for MMP assays efficacy (%) Rat Hepatocytes / MMP assays IC50 (µM) Rat Hepatocytes: mean ± SD of three experiments.
Data set [2] deals with HepG2 cells. To be noted: cited from earlier work.
Data set [3] has as its system HepG2 cells. Kind of data set: cells. To be noted: Homo sapiens; for IC50: HepG2, read-out: MMP assays IC50 (µM) HepG2; for Emax: HepG2, read-out: MMP assays efficacy (%) HepG2.
[4] abbreviates: read-out: MMP assays IC50 (µM) qHTS-HepG2.
Where [5] appears, read: read-out: MMP assays IC50 (µM), qHTS-HepG2.

As a reminder, the IC50 is the concentration at which inhibition is half-maximal. For the molecule `C=C1CC[C@H](O)C/C1=C/C=C1\CCC[C@]2(C)[C@@H]([C@H](C)CCCC(C)(C)O)CC[C@@H]12` [Calcifediol], in data set [1], the IC50 stood at 14.2 ± 9.57 µM and the “MMP assays efficacy (%) Rat Hepatocytes” value is recorded as -66±31%. The “MMP assays efficacy (%) qHTS-HepG2” value in data set [2] is on record as -109±10%. The 50% inhibitory concentration (IC50) in data set [2] (setting [4]) is 5.82 ± 0.47 µM. In addition, in data set [3], the IC50 was found to be 12.3 µM and the Emax stood at 115%.

Consider `Oc1ccc(/N=N/c2ccccc2)cc1` [p-Phenylazophenol], for which, in data set [1], the “MMP assays IC50 (µM) Rat Hepatocytes” value was “inactive” and the “MMP assays efficacy (%) Rat Hepatocytes” value was “inactive”. Further, in data set [2], the “MMP assays efficacy (%) qHTS-HepG2” value was -96±7%. Also, in data set [2] (setting [5]), the IC50 is 4.06 ± 1.23 µM. Besides, in data set [3], the IC50 came to 10 µM and the Emax was found to be 107%.

With `O=C1OC[C@H](Cc2cccc(O)c2)[C@H]1Cc1cccc(O)c1` [Enterolactone], in data set [1], the “MMP assays IC50 (µM) Rat Hepatocytes” value is “inactive” and the “MMP assays efficacy (%) Rat Hepatocytes” value was “inactive”. For the same molecule, the “MMP assays efficacy (%) qHTS-HepG2” value in data set [2] is recorded as -79±21%. The IC50 in data set [2] (setting [4]) is 9.99 ± 5.02 µM. In addition, in data set [3], the IC50 came out at 10.7 µM and the Emax was 76%.

Turning to `CN1C(C(=O)Nc2ccccn2)=C(O)c2sc(Cl)cc2S1(=O)=O` [Lornoxicam], the figures for the IC50 in data set [1], in data set [2] (setting [5]) and in data set [3] were 3.3 ± 2.52 µM, 9.44 ± 1.09 µM and 6.15 µM, respectively. Besides, the “MMP assays efficacy (%) Rat Hepatocytes” value in data set [1] was -57±10%. The “MMP assays efficacy (%) qHTS-HepG2” value in data set [2] was -92±10%. Further, in data set [3], the Emax was 73%.

As for `Oc1cccc(Nc2ccccc2)c1` [Compound 3-Hydroxy-N-phenylaniline], in data set [1], the “MMP assays IC50 (µM) Rat Hepatocytes” value is “inactive” and the “MMP assays efficacy (%) Rat Hepatocytes” value is “inactive”. Further, in data set [2], the “MMP assays efficacy (%) qHTS-HepG2” value is -110±13%. The IC50 in data set [2] (setting [4]) was 28.5 ± 6.04 µM. Further, in data set [3], the IC50 was 35.5 µM and the Emax was 110%.

`O=C1c2cccc(O)c2C(=O)c2c(O)cc(CO)cc21` [Aloe-emodin]: in data set [1], the IC50 came out at 8.43 ± 5.96 µM and the “MMP assays efficacy (%) Rat Hepatocytes” value is -48±19%. Moreover, the “MMP assays efficacy (%) qHTS-HepG2” value in data set [2] is given as -78±8%. Besides, the IC50 in data set [2] (setting [4]) was 1.79 ± 1.54 µM. In data set [3], the IC50 came to 7.08 µM and the Emax worked out at 90%.

Regarding `O=c1c2ccccc2[se]n1-c1ccccc1` [Ebselen], in data set [1], the IC50 stood at 21.4 ± 5.35 µM and the “MMP assays efficacy (%) Rat Hepatocytes” value is recorded as -58±5%. In addition, the “MMP assays efficacy (%) qHTS-HepG2” value in data set [2] is on record as -94±8%. Besides, in data set [2] (setting [4]), the IC50 is 23.2 ± 0.93 µM. For the same molecule, in data set [3], the IC50 is 19.4 µM and the Emax is 112%.

As for `Cc1cc(O)c2c(O)c3c(O)cccc3cc2c1` [Chrysarobin], in data set [1], the IC50 stood at 19.3 ± 8.27 µM and the “MMP assays efficacy (%) Rat Hepatocytes” value was -52±8%. The “MMP assays efficacy (%) qHTS-HepG2” value in data set [2] is -105±7%. The IC50 in data set [2] (setting [4]) is 22.8 ± 3.93 µM. Further, in data set [3], the IC50 amounted to 30.8 µM and the Emax came to 90%.

With `CC(=O)Oc1ccc2c(c1)CC[C@@H]1[C@@H]2CC[C@]2(C)[C@@H](O)CC[C@@H]12` [Estradiol acetate], in data set [1], the “MMP assays IC50 (µM) Rat Hepatocytes” value was “inactive” and the “MMP assays efficacy (%) Rat Hepatocytes” value was “inactive”. Moreover, in data set [2], the “MMP assays efficacy (%) qHTS-HepG2” value is recorded as -85±4%. The IC50 in data set [2] (setting [4]) is 9.08 ± 0.59 µM. Besides, in data set [3], the IC50 turned out to be 17.3 µM and the Emax amounted to 95%.

As for `CCc1oc2ccccc2c1C(=O)c1cc(I)c(O)c(I)c1` [Benziodarone], the values for the IC50 in data set [1], in data set [2] (setting [4]) and in data set [3] were 1.76 ± 0.68 µM, 2.98 ± 0.63 µM and 4.35 µM, respectively. Besides, the “MMP assays efficacy (%) Rat Hepatocytes” value in data set [1] is -95±10%. Also, the “MMP assays efficacy (%) qHTS-HepG2” value in data set [2] was -106±2%. Further, the Emax in data set [3] was 97%.

Turning to `CC(C)(c1ccc(O)cc1)c1ccc(O)cc1` [Bisphenol A], in data set [1], the IC50 came out at 37.6 ± 3.06 µM and the “MMP assays efficacy (%) Rat Hepatocytes” value is -59±20%. The “MMP assays efficacy (%) qHTS-HepG2” value in data set [2] is -122±14%. In data set [2] (setting [4]), the IC50 is 14 ± 6.29 µM. For the same molecule, in data set [3], the IC50 amounted to 15.8 µM and the Emax worked out at 111%.

On to `CCCCCOC(=O)c1ccc(O)cc1` [Pentylparaben], for which, in data set [1], the “MMP assays IC50 (µM) Rat Hepatocytes” value is “inactive” and the “MMP assays efficacy (%) Rat Hepatocytes” value is “inactive”. In data set [2], the “MMP assays efficacy (%) qHTS-HepG2” value is reported as -119±16%. Moreover, the IC50 in data set [2] (setting [5]) is 8.74 ± 1.65 µM. In addition, in data set [3], the IC50 stood at 14.1 µM and the Emax came out at 114%.

Consider `CN1C(=O)/C(=N\NC(N)=S)c2ccccc21` [Methisazone], for which, in data set [1], the IC50 worked out at 21.5 ± 9.04 µM and the “MMP assays efficacy (%) Rat Hepatocytes” value is given as -94±16%. Further, the “MMP assays efficacy (%) qHTS-HepG2” value in data set [2] is listed as -96±7%. In addition, in data set [2] (setting [5]), the IC50 is 5.82 ± 1.38 µM. In data set [3], the IC50 was determined as 12.6 µM and the Emax was found to be 90%.

Regarding `Oc1ccc(OCc2ccccc2)cc1` [4-(Benzyloxyl)phenol], the IC50 is 9.04 ± 8.1 µM in data set [1], 18.5 ± 1.51 µM in data set [2] (setting [4]) and 7.4 µM in data set [3]. In data set [1], the “MMP assays efficacy (%) Rat Hepatocytes” value was -46±35%. Further, the “MMP assays efficacy (%) qHTS-HepG2” value in data set [2] is given as -87±9%. Also, the Emax in data set [3] was 93%.

Regarding `CC(C)(C)c1ccc(OC(=O)c2ccccc2O)cc1` [4-tert-Butylphenyl salicylate], in data set [1], the “MMP assays IC50 (µM) Rat Hepatocytes” value was “inactive” and the “MMP assays efficacy (%) Rat Hepatocytes” value was “inactive”. Also, the “MMP assays efficacy (%) qHTS-HepG2” value in data set [2] was -78±23%. In addition, the IC50 in data set [2] (setting [4]) was 28.4 ± 3.64 µM. In data set [3], the IC50 was found to be 35.5 µM and the Emax stood at 90%.

Consider `Cc1ccc(C(C)(C)C)c(O)c1` [Compound 2-tert-Butyl-5-methylphenol], for which the IC50 in data set [1] was 40.1 ± 6.5 µM; in data set [2] (setting [4]) it was 23.5 ± 2.85 µM; in data set [3], 5.01 µM. Besides, in data set [1], the “MMP assays efficacy (%) Rat Hepatocytes” value is -66±11%. The “MMP assays efficacy (%) qHTS-HepG2” value in data set [2] is reported as -96±7%. For the same molecule, the Emax in data set [3] was 95%.

Regarding `CCC(CC)(CC(=O)Nc1cccc(/C=C/c2nc(C3CCC3)cs2)c1)C(=O)O` [Cinalukast], in data set [1], the IC50 was determined as 13.5 ± 5.36 µM and the “MMP assays efficacy (%) Rat Hepatocytes” value was -67±19%. The “MMP assays efficacy (%) qHTS-HepG2” value in data set [2] is -92±29%. Moreover, the IC50 in data set [2] (setting [4]) is 28.8 ± 1.17 µM. Also, in data set [3], the IC50 amounted to 17.3 µM and the Emax was 96%.

Turning to `CC(O)(c1ccc(Cl)cc1)c1ccc(Cl)cc1` [Chlorfenethol], in data set [1], the IC50 came out at 18.9 ± 5.35 µM and the “MMP assays efficacy (%) Rat Hepatocytes” value is -90±2%. For the same molecule, the “MMP assays efficacy (%) qHTS-HepG2” value in data set [2] is on record as -110±19%. Moreover, the IC50 in data set [2] (setting [4]) is 26.3 ± 7.53 µM. In addition, in data set [3], the IC50 is 12.6 µM and the Emax came to 100%.

On to `O=c1c(-c2ccccc2)c1-c1ccccc1` [Diphenylcyclopropenone], for which, in data set [1], the “MMP assays IC50 (µM) Rat Hepatocytes” value is “inactive” and the “MMP assays efficacy (%) Rat Hepatocytes” value is “inactive”. In data set [2], the “MMP assays efficacy (%) qHTS-HepG2” value was -79±6%. Also, the IC50 in data set [2] (setting [4]) was 25.6 ± 1.67 µM. For the same molecule, in data set [3], the IC50 came to 27.5 µM and the Emax was 79%.

On to `O=C(O)c1ccccc1Nc1cccc(C(F)(F)F)c1` [Flufenamic acid], for which, in data set [1], the IC50 came out at 14.5 ± 4.99 µM and the “MMP assays efficacy (%) Rat Hepatocytes” value was -111±31%. In data set [2], the “MMP assays efficacy (%) qHTS-HepG2” value is given as -129±20%. The IC50 in data set [2] (setting [5]) was 36.6 ± 1.87 µM. Moreover, in data set [3], the IC50 was 17.3 µM and the Emax came out at 108%.
